Results reported in patent publication US20210386732A1, “SEMI-SOLID ANTI-HISTAMINE COMPOSITIONS AND METHODS OF MAKING AND USING THEREOF” (SEATTLE GUMMY COMPANY, priority 2018, published 2021).

Legend:
[1] = cited from earlier work
[2] = Complex formation with β-cyclodextrin, association constant (ITC measurements for cetirizine); assay type: binding; settings: beta versus alpha and gamma cyclodextrin
Excerpt: Alpha cyclodextrin consists of a ring of 6 glucose units while beta has 7 glucose units in a ring and gamma has 8 glucose units in a ring. The ring structures form a crown. The inside of the crown is able to complex with APIs in the current application. […] Either the phenyl group or the 4-chlorophenyl group fit inside the ring structure. The inside cavity of cylcodextrins is largely hydrophobic, which is favorable for APIs' hydrophobic aromatic systems. The formation of the chelate structure is endothermically favorable due to electrostatic interactions of the pi system of the aromatic moiety with in the hydrophobic cavity and electronic interaction with the hydrogen atoms and glycidyl ether bonds. It is these electronic interactions between these systems of the cyclodextrin and the pi system that gives the favorable heat of formation. […] In one embodiment, the complexing composition consists essentially of beta-cyclodextrin.
Diphenhydramine forms complexes with cylcodextrins. The mechanism is similar to that of cetirizine. […] In one embodiment, the complexing agent comprises beta cyclodextrin, which is configured to form antihistamine complex. In some embodiments, the complexing agent comprises alpha-cyclodextrin, gamma-cyclodextrin, or a combination there. The action of coordination with diphenhydramine is similar to that of cetirizine.

[3] = cited from earlier work; remark: listed apart in the source
[4] = cited from earlier work; remark: listed apart in the source
[5] = per 1 gram of water; cited from earlier work

SMILES	association constant K(a) of the complex with β-cyclodextrin [1]	formation constant with beta cyclodextrin relative to alpha and gamma cyclodextrin [2]	association constant K(a) of the complex with α-cyclodextrin [3]	association constant K(a) of the complex with γ-cyclodextrin [4]	amount that dissolves into 1 gram of water [5]
O=C(O)COCCN1CCN(C(c2ccccc2)c2ccc(Cl)cc2)CC1 (stereo not drawn) [Cetirizine, cetirizine]	5641 ± 358 M⁻¹	nearly four times	1434 ± 60 M⁻¹	1200 ± 50 M⁻¹	
O=C(CO)[C@@H](O)[C@H](O)[C@H](O)CO [fructose]					~4 grams
OC[C@H]1O[C@@](CO)(O[C@H]2O[C@H](CO)[C@@H](O)[C@H](O)[C@H]2O)[C@@H](O)[C@@H]1O [sucrose, O-α-D-glucopyranosyl-(1→2)-β-D-fructofuranoside]					More than 2 grams
